# Laboratory results: the NIST ThermoML archive (doi:10.1016/j.fluid.2016.01.043)
# ± gives the expanded uncertainty stated by the source.
# Legend:
# [1] = for viscosity / electrical conductivity: 101 kPa, Liquid; for viscosity: Cone and plate viscometry; for electrical conductivity: Frequency=0 MHz, Direct current cell with electrodes
# [2] = mn = molality of the nth substance listed, in mol/kg; conditions: 101 kPa, Liquid; for electrical conductivity: Frequency=0 MHz, Direct current cell with electrodes; for viscosity: Cone and plate viscometry
smiles,measurement,setting,value
CCCC[N+]1(C)CCCC1.O=S(=O)([N-]S(=O)(=O)C(F)(F)F)C(F)(F)F,viscosity,[1]; 293.15 K,102 ± 4 mPa·s
same,electrical conductivity,[1]; 293.15 K,0.25 ± 0.01 S/m
same,viscosity,[1]; 303.15 K,67 ± 3 mPa·s
same,viscosity,[1]; 312.15 K,47 ± 2 mPa·s
same,viscosity,[1]; 312.17 K,47 ± 2 mPa·s
same,electrical conductivity,[1]; 313.15 K,0.47 ± 0.02 S/m
same,viscosity,[1]; 321.22 K,36 ± 2 mPa·s
same,electrical conductivity,[1]; 323.15 K,0.63 ± 0.03 S/m
same,viscosity,[1]; 330.29 K,28 ± 1 mPa·s
same,electrical conductivity,[1]; 333.15 K,0.8 ± 0.03 S/m
same,viscosity,[1]; 339.37 K,22 ± 1 mPa·s
same,electrical conductivity,[1]; 343.15 K,1.01 ± 0.04 S/m
same,viscosity,[1]; 348.44 K,17 ± 1 mPa·s
same,electrical conductivity,[1]; 353.15 K,1.21 ± 0.05 S/m
same,viscosity,[1]; 357.52 K,14 ± 1 mPa·s
same,viscosity,[1]; 367.49 K,11 ± 1 mPa·s
same,electrical conductivity,[1]; 373.15 K,1.74 ± 0.07 S/m
same,viscosity,[1]; 377.46 K,10 ± 1 mPa·s
same,viscosity,[1]; 386.53 K,8 ± 1 mPa·s
same,electrical conductivity,[1]; 393.15 K,2.3 ± 0.09 S/m
same,viscosity,[1]; 394.73 K,7 ± 1 mPa·s
same,viscosity,[1]; 403.15 K,6 ± 1 mPa·s
same,electrical conductivity,[1]; 413.15 K,2.92 ± 0.12 S/m
same,electrical conductivity,[1]; 433.15 K,3.61 ± 0.14 S/m
same,electrical conductivity,[1]; 453.15 K,4.33 ± 0.17 S/m
same,Normal melting temperature,"[1]; Crystal, DTA",-22 ± 1 °C
[F][Ta]([F])([F])([F])[F] [Tantalum fluoride] + CCCC[N+]1(C)CCCC1.O=S(=O)([N-]S(=O)(=O)C(F)(F)F)C(F)(F)F,electrical conductivity,"[2]; 293.15 K, m1 = 0.08",0.24 ± 0.01 S/m
same,electrical conductivity,"[2]; 293.15 K, m1 = 0.17",0.23 ± 0.01 S/m
same,electrical conductivity,"[2]; 293.15 K, m1 = 0.35",0.23 ± 0.01 S/m
same,electrical conductivity,"[2]; 293.15 K, m1 = 0.7",0.22 ± 0.01 S/m
same,electrical conductivity,"[2]; 293.15 K, m1 = 1.41",0.22 ± 0.01 S/m
same,viscosity,"[2]; 303.15 K, m1 = 0.08",71 ± 35 mPa·s
same,viscosity,"[2]; 303.15 K, m1 = 0.17",73 ± 36 mPa·s
same,viscosity,"[2]; 303.15 K, m1 = 0.35",77 ± 38 mPa·s
same,viscosity,"[2]; 303.15 K, m1 = 0.7",81 ± 40 mPa·s
same,viscosity,"[2]; 303.15 K, m1 = 1.41",87 ± 43 mPa·s
same,viscosity,"[2]; 312.17 K, m1 = 0.08",51 ± 25 mPa·s
same,viscosity,"[2]; 312.17 K, m1 = 0.17",52 mPa·s
same,viscosity,"[2]; 312.17 K, m1 = 0.35",56 mPa·s
same,viscosity,"[2]; 312.17 K, m1 = 0.7",59 ± 29 mPa·s
same,viscosity,"[2]; 312.17 K, m1 = 1.41",62 mPa·s
same,viscosity,"[2]; 321.22 K, m1 = 0.08",38 mPa·s
same,viscosity,"[2]; 321.22 K, m1 = 0.17",40 mPa·s
same,viscosity,"[2]; 321.22 K, m1 = 0.35",41 ± 20 mPa·s
same,viscosity,"[2]; 321.22 K, m1 = 0.7",44 mPa·s
same,viscosity,"[2]; 321.22 K, m1 = 1.41",47 ± 23 mPa·s
same,viscosity,"[2]; 339.37 K, m1 = 0.08",23 ± 11 mPa·s
same,viscosity,"[2]; 339.37 K, m1 = 0.17",24 mPa·s
same,viscosity,"[2]; 339.37 K, m1 = 0.35",25 ± 12 mPa·s
same,viscosity,"[2]; 339.37 K, m1 = 0.7",26 mPa·s
same,viscosity,"[2]; 339.37 K, m1 = 1.41",28 mPa·s
same,viscosity,"[2]; 367.49 K, m1 = 0.08",12 mPa·s
same,viscosity,"[2]; 367.49 K, m1 = 0.17",12 mPa·s
same,viscosity,"[2]; 367.49 K, m1 = 0.35",13 ± 6 mPa·s
same,viscosity,"[2]; 367.49 K, m1 = 0.7",14 mPa·s
same,viscosity,"[2]; 367.49 K, m1 = 1.41",15 ± 7 mPa·s
same,electrical conductivity,"[2]; 373.15 K, m1 = 0.08",1.73 ± 0.07 S/m
same,electrical conductivity,"[2]; 373.15 K, m1 = 0.17",1.66 ± 0.07 S/m
same,electrical conductivity,"[2]; 373.15 K, m1 = 0.35",1.65 ± 0.07 S/m
same,electrical conductivity,"[2]; 373.15 K, m1 = 0.7",1.56 ± 0.06 S/m
same,electrical conductivity,"[2]; 373.15 K, m1 = 1.41",1.37 ± 0.06 S/m
same,viscosity,"[2]; 403.15 K, m1 = 0.08",7 mPa·s
same,viscosity,"[2]; 403.15 K, m1 = 0.17",7 mPa·s
same,viscosity,"[2]; 403.15 K, m1 = 0.35",7 mPa·s
same,viscosity,"[2]; 403.15 K, m1 = 0.7",8 mPa·s
same,viscosity,"[2]; 403.15 K, m1 = 1.41",8 mPa·s
same,electrical conductivity,"[2]; 413.15 K, m1 = 0.08",2.94 ± 0.12 S/m
same,electrical conductivity,"[2]; 413.15 K, m1 = 0.17",2.81 ± 0.11 S/m
same,electrical conductivity,"[2]; 413.15 K, m1 = 0.35",2.78 ± 0.11 S/m
same,electrical conductivity,"[2]; 413.15 K, m1 = 0.7",2.66 ± 0.11 S/m
same,electrical conductivity,"[2]; 413.15 K, m1 = 1.41",2.27 ± 0.09 S/m
same,electrical conductivity,"[2]; 453.15 K, m1 = 0.08",4.23 ± 0.17 S/m
same,electrical conductivity,"[2]; 453.15 K, m1 = 0.17",4.16 ± 0.17 S/m
same,electrical conductivity,"[2]; 453.15 K, m1 = 0.35",4.13 ± 0.17 S/m
same,electrical conductivity,"[2]; 453.15 K, m1 = 0.7",3.84 ± 0.15 S/m
same,electrical conductivity,"[2]; 453.15 K, m1 = 1.41",3.44 ± 0.14 S/m
CCCC[N+]1(C)CCCC1.O=S(=O)([N-]S(=O)(=O)C(F)(F)F)C(F)(F)F + [F][Ta]([F])([F])([F])[F],viscosity,"[2]; 293.15 K, m2 = 0",102 mPa·s
same,electrical conductivity,"[2]; 293.15 K, m2 = 0",0.25 ± 0.01 S/m
same,viscosity,"[2]; 303.15 K, m2 = 0",67 ± 33 mPa·s
same,viscosity,"[2]; 312.15 K, m2 = 0",47 ± 23 mPa·s
same,viscosity,"[2]; 312.17 K, m2 = 0",47 ± 23 mPa·s
same,electrical conductivity,"[2]; 313.15 K, m2 = 0",0.47 ± 0.02 S/m
same,viscosity,"[2]; 321.22 K, m2 = 0",36 mPa·s
same,electrical conductivity,"[2]; 323.15 K, m2 = 0",0.63 ± 0.03 S/m
same,viscosity,"[2]; 330.29 K, m2 = 0",28 mPa·s
same,electrical conductivity,"[2]; 333.15 K, m2 = 0",0.8 ± 0.03 S/m
same,viscosity,"[2]; 339.37 K, m2 = 0",22 mPa·s
same,electrical conductivity,"[2]; 343.15 K, m2 = 0",1.01 ± 0.04 S/m
same,viscosity,"[2]; 348.44 K, m2 = 0",17 ± 8 mPa·s
same,electrical conductivity,"[2]; 353.15 K, m2 = 0",1.21 ± 0.05 S/m
same,viscosity,"[2]; 357.52 K, m2 = 0",14 mPa·s
same,viscosity,"[2]; 367.49 K, m2 = 0",11 ± 5 mPa·s
same,electrical conductivity,"[2]; 373.15 K, m2 = 0",1.74 ± 0.07 S/m
same,viscosity,"[2]; 377.46 K, m2 = 0",10 mPa·s
same,viscosity,"[2]; 386.53 K, m2 = 0",8 mPa·s
same,electrical conductivity,"[2]; 393.15 K, m2 = 0",2.3 ± 0.09 S/m
same,viscosity,"[2]; 394.73 K, m2 = 0",7 mPa·s
same,viscosity,"[2]; 403.15 K, m2 = 0",6 mPa·s
same,electrical conductivity,"[2]; 413.15 K, m2 = 0",2.92 ± 0.12 S/m
same,electrical conductivity,"[2]; 433.15 K, m2 = 0",3.61 ± 0.14 S/m
same,electrical conductivity,"[2]; 453.15 K, m2 = 0",4.33 ± 0.18 S/m
